Source: US12018023B2 (NERVIANO MEDICAL SCIENCES S.R.L., priority 2018, dated 2024)
Where two headings read alike, the source gives them in different places.

Experiments:
[1] = target: T1, IDH1^R132C (Homo sapiens, UniProt O75874, R132C); assay: NADPH depletion assay, IDH1 R132C; format: biochemical
T1 construct: purchased not specified
Procedure, shortened: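 Fluorescence readout (Ex544/Em590) of NADPH left after diaphorase/resazurin addition. Alpha-ketoglutarate 0.14 mM final, enzyme 2 nM final; compound preincubation 15 min, then 60 min reaction, both at room temperature, pH 7.6 Tris buffer.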

[2] = test system: HT-1080 (IDH1^R132C); assay: Cellular 2-HG production assay, HT-1080; format: cell-based; conditions: inhibition of 2HG production, 72 hr incubation, LC-MS/MS, read-out: HT1080 2-HG IC50
Protocol: Cell lines HT-1080 (commercially available) and U87-MG-IDH1^R132H (obtained in analoy to the procedure reported in J. Mol. Neurosci 2013, 50, 165-71) are maintained in E-MEM 10% FCS and incubated at 37° C. in a humidified 5% CO2 atmosphere. Stably transfected U87-MG cell lines are also supplemented with 500 μg/mL G418.
Cells are seeded into 96 well black flat bottom plates at a density of 500 cells/well in 100 μL complete medium. After 24 hr the medium is replaced with 200 uL of fresh medium and compounds (dissolved into DMSO) are administrated to the cells using D300E Digital Dispenser (Tecan).
After 72 hr of incubation 100 uL from each well are collected and used for 2HG (R(−)-2-hydroxyglutarate) quantification.
Levels of 2-HG in cell culture media are determined by LC-MS/MS. Cell supernatants (100 μL/well) are treated with 1 M aqueous trichloroacetic acid containing 130 μM of the internal standard 2-HG-d3 (20 μL/well) in a 96-well plate.
The plates are sealed, mildly vortexed for 60 minutes, centrifuged at 4,000 RPM for 15 minutes, placed in a refrigerated autosampler taking care not to shake them, and aliquots of the upper part of the samples are directly injected in the chromatographic system. Calibration standards are obtained by ten fold dilution of aqueous 2-HG stock solutions with blank cell culture medium and denatured exactly in the same way as described above for samples. Samples and standards are assayed for 2-HG by reversed phase chromatography on a C18 column eluted with aqueous 0.15% formic acid and briefly washed with 90% methanol at the end of the run. 2-HG is determined by negative ion electrospray ionization with the internal standard method on a triple quadrupole mass spectrometer monitoring the MRM transitions 147>129 (2-HG) and 150>132 (2-HG-d3). 2-HG inhibition was calculated by comparing treated versus control data using Assay Explore (Symyx) software, with IC50 determined using a sigmoidal fitting algorithm.

[3] = target: T2, IDH1^R132H homodimer enzyme (Homo sapiens, UniProt O75874, R132H); assay: NADPH depletion assay, IDH1 R132H; format: biochemical
T2 construct: purchased not specified
T2 sequence (O75874 whole entry R132H): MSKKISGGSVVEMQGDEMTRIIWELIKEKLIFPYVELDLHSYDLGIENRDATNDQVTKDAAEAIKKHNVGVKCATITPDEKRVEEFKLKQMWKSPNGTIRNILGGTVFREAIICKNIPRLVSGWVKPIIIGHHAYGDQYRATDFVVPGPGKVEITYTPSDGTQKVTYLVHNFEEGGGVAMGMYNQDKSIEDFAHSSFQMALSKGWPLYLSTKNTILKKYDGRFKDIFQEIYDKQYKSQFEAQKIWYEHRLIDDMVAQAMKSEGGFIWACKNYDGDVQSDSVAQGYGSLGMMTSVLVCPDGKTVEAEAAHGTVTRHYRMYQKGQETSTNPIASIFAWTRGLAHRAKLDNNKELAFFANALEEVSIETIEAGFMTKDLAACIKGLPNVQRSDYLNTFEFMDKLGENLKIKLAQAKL
Procedure, shortened: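 IDH1 R132H enzyme (8 nM as diluted) in Tris-HCl pH 7.6 with 10 mM MgCl2, 0.001% Triton X-100 and 4 mM β-mercaptoethanol is preincubated 15 min at RT with compound. Substrate mix (12 uM NADPH, 3.4 mM α-ketoglutarate) is added for 60 min; remaining NAD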

[4] = target: T3, IDH2^R172K (Homo sapiens, UniProt P48735, R172K); assay: NADPH depletion assay, IDH2 R172K; format: biochemical
T3 construct: purchased not specified
T3 sequence (P48735 40-452 R172K): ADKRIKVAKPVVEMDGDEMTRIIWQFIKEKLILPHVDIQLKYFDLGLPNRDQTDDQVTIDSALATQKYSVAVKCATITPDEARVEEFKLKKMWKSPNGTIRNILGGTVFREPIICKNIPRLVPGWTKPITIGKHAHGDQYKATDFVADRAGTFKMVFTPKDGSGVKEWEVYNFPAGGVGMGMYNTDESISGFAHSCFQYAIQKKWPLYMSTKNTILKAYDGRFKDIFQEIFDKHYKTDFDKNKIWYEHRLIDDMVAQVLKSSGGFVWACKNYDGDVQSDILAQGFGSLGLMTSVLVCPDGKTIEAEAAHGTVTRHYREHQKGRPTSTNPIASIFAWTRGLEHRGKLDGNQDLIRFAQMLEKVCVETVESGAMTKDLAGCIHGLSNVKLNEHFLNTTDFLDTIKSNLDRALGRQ
Protocol: IDH mutated enzyme activity converting alpha-ketoglutarate to 2-hydroxyglutaric acid is measured using a NADPH depletion assay. In the assay the remaining cofactor is measured at the end of the reaction with the addition of a catalytic excess of diaphorase and resazurin, to generate a fluorescent signal in proportion to the amount of NADPH remaining. IDH1 WT enzyme as well as mutated isoforms IDH1^R132H, IDH1^R132C, and IDH^2R172K enzymes are commercially available proteins (see e.g. Sino Biological, Abcam, Active Motif or Creative BioMart).
IDH1^R132H homodimer enzyme are diluted to 8 nM, in 10 μL of Assay Buffer (150 mM NaCl, 50 mM Tris-HCl pH 7.6, 10 mM MgCl2, 0.001% Triton X-100, 4 mM β-mercaptoethanol); 0.2 uL of test compound, previously serially diluted 1 to 3, >10 experimental points from 1 mM in DMSO, is added and the mixture is incubated for 15 minutes at room temperature. The reaction is started with the addition of 10 μL of Substrate Mix (12 uM NADPH, 3.4 mM alpha-ketoglutarate in Assay Buffer) and the mixture is incubated for 60 minutes at room temperature. The reaction is terminated with the addition of 5 μl of Detection Buffer (100 μg/mL diaphorase, 30 μM resazurin, in IX Assay Buffer), and is incubated for 15 minute before reading on a ViewLux as platereader at Ex544/Em590.
Compounds are assayed for their activity against IDH2^R172K following the same assay as above with the following modifications: IDH2^R172K and alpha-ketoglutarate final concentrations in the Assay Buffer is 16 nM and 0.55 mM, respectively.

T1 sequence (O75874 whole entry R132C): as the sequence (O75874 whole entry R132H) above, with H132C counted along it

IC50 [1]	IC50 ([2]; Homo sapiens, HT-1080, 72 h)	IC50 [3]	IC50 [2]	IC50 [4]	SMILES
147 nM	168 nM	–	–	–	C/C=C/C(=O)N1CCN(C(CC)c2ccc([C@H](C)Nc3ncc4ccc(=O)n(C(C)C)c4n3)cc2)CC1 (stereo partly drawn) [cpd 222, 2-({(1S)-1-[4-(1-{4-[(2E)-but-2-enoyl]piperazin-1-yl}propyl)phenyl]ethyl}amino)-8-(propan-2-yl)pyrido[2,3-d]pyrimidin-7(8H)-one]
1 nM	1.1 nM	–	–	–	C=CC(=O)N1CCN(C(CC)c2ccc([C@H](C)Nc3ncc4ccc(=O)n(Cc5c(F)cccc5F)c4n3)cc2)CC1 (stereo partly drawn) [cpd 216, 2-{[(1S)-1-{4-[1-(4-acryloylpiperazin-1-yl)propyl]phenyl}ethyl]amino}-8-(2,6-difluorobenzyl)pyrido[2,3-d]pyrimidin-7(8H)-one]
66 nM	517 nM	236 nM	–	–	C/C=C/C(=O)N1CCN(Cc2ccc([C@H](C)Nc3ncc4ccc(=O)n(CC(C)(C)C)c4n3)cc2)CC1 [cpd 143, 2-({(1S)-1-[4-({4-[(2E)-but-2-enoyl]piperazin-1-yl}methyl)phenyl]ethyl}amino)-8-(2,2-dimethylpropyl) pyrido [2,3-d]pyrimidin-7(8H)-one]
2 nM	2.3 nM	–	–	–	C=CC(=O)N1CCN([C@@H](CC2CC2)c2ccc([C@H](C)Nc3cc4c(ccc(=O)n4C(C)C)cn3)cc2)CC1 [cpd 251, 7-{[(1S)-1-{4-[(1S)-1-(4-acryloylpiperazin-1-yl)-2-cyclopropylethyl]phenyl}ethyl]amino}-1-(propan-2-yl)-1,6-naphthyridin-2(1H)-one]
68 nM	142 nM	–	–	–	C=C(C)C(=O)N1CCN(C(CC)c2ccc([C@H](C)Nc3ncc4ccc(=O)n(C(C)C)c4n3)cc2)CC1 (stereo partly drawn) [cpd 221, 2-{[(1S)-1-(4-{1-[4-(2-methylacryloyl)piperazin-1-yl]propyl}phenyl)ethyl]amino}-8-(propan-2-yl)pyrido[2,3-d]pyrimidin-7(8H)-one]
46 nM	30.2 nM	–	–	–	C=CC(=O)N1CCN(Cc2ccc([C@H](C)Nc3ncc4ccc(=O)n(CC)c4n3)cc2)[C@H](C(C)C)C1 [cpd 209, 2-{[(1S)-1-(4-{[(2R)-4-acryloyl-2-(propan-2-yl)piperazin-1-yl]methyl}phenyl)ethyl]amino}-8-ethylpyrido[2,3-d]pyrimidin-7(8H)-one]
10 nM	4.5 nM	–	–	–	CC(C)n1c(=O)ccc2cnc(N[C@@H](C)c3ccc([C@H](CC4CC4)N4CCN(C(=O)CCCl)CC4)cc3)nc21 [cpd 242, 2-{[(1S)-1-(4-{(1S)-1-[4-(3-chloropropanoyl)piperazin-1-yl]-2-cyclopropylethyl}phenyl)ethyl]amino}-8-(propan-2-yl)pyrido[2,3-d]pyrimidin-7(8H)-one]
13 nM	2.1 nM	–	–	–	C=CC(=O)N1CCN(C(CC)c2ccc([C@H](C)Nc3ncc4ccc(=O)n(C5CC5)c4n3)cc2)CC1 (stereo partly drawn) [cpd 218, 2-{[(1S)-1-{4-[1-(4-acryloylpiperazin-1-yl)propyl]phenyl}ethyl]amino}-8-cyclopropylpyrido[2,3-d]pyrimidin-7(8H)-one]
15 nM	8.2 nM	–	–	–	C#Cc1ccc(Cn2c(=O)ccc3cnc(N[C@@H](C)c4ccc(CN5CCN(C(=O)C=C)CC5)cc4)nc32)c(F)c1 [cpd 217, 2-{[(1S)-1-{4-[(4-acryloylpiperazin-1-yl)methyl]phenyl}ethyl]amino}-8-(4-ethynyl-2-fluorobenzyl)pyrido[2,3-d]pyrimidin-7(8H)-one]
61 nM	–	–	53.1 nM	–	C=CC(=O)N1CCN(Cc2ccc([C@H](C)Nc3ncc4ccc(=O)n(CC)c4n3)cc2)C(C(C)C)C1 (stereo in doubt) [cpd 212, 2-{[(1S)-1-(4-{[(2S)-4-acryloyl-2-(propan-2-yl)piperazin-1-yl]methyl}phenyl)ethyl]amino}-8-ethylpyrido[2,3-d]pyrimidin-7(8H)-one]
1700 nM	1070 nM	–	–	–	C=CC(=O)N1CC[C@H](Oc2ccc([C@H](C)Nc3ncc4ccc(=O)n(CC)c4n3)cc2)C1 [cpd 224]
20 nM	38 nM	–	–	–	CC[C@H](c1ccc([C@H](C)Nc2ncc3ccc(=O)n(C(C)C)c3n2)cc1)N1CCN(C(=O)CCO)CC1 [cpd 243]
271 nM	–	575 nM	–	2670 nM	CCCn1c(=O)ccc2cnc(N[C@@H](C)c3ccc(CN4CCC(F)(F)CC4)cc3)nc21 [cpd 101, 2-{[(1S)-1-{4-[(4,4-difluoropiperidin-1-yl)methyl]phenyl}ethyl]amino}-8-propylpyrido[2,3-d]pyrimidin-7(8H)-one]
336 nM	–	1070 nM	–	2600 nM	C[C@H](Nc1ncc2ccc(=O)n(Cc3ccc(C#N)cc3)c2n1)c1ccc(Cl)cc1 [cpd 27, 4-{[2-{[(1S)-1-(4-chlorophenyl)ethyl]amino}-7-oxopyrido[2,3-d]pyrimidin-8(7H)-yl]methyl}benzonitrile]
850 nM	–	1740 nM	–	5730 nM	CCn1c(=O)ccc2cnc(N[C@@H](C)c3ccc(Cl)cc3)nc21 [cpd 14, 2-{[(1S)-1-(4-chlorophenyl)ethyl]amino}-8-ethylpyrido[2,3-d]pyrimidin-7(8H)-one]
3600 nM	–	1940 nM	–	679 nM	C=CC(=O)N1CCN(C(=O)c2ccc([C@H](C)Nc3ncc4ccc(=O)n(CC)c4n3)cc2)CC1 [cpd 190, 2-{[(1S)-1-{4-[(4-acryloylpiperazin-1-yl)carbonyl]phenyl}ethyl]amino}-8-ethylpyrido[2,3-d]pyrimidin-7(8H)-one]
460 nM	–	1000 nM	–	2700 nM	C[C@H](Nc1ncc2ccc(=O)n(Cc3ccccc3)c2n1)c1ccc(Cl)cc1 [cpd 16, 8-benzyl-2-{[(1S)-1-(4-chlorophenyl)ethyl]amino}pyrido[2,3-d]pyrimidin-7(8H)-one]
4 nM	2.3 nM	–	–	–	C=CC(=O)N1CCN(C(CC)c2ccc([C@H](C)Nc3ncc4ccc(=O)n(C)c4n3)cc2)CC1 (stereo partly drawn) [cpd 215, 2-{[(1S)-1-{4-[1-(4-acryloylpiperazin-1-yl)propyl]phenyl}ethyl]amino}-8-methylpyrido[2,3-d]pyrimidin-7(8H)-one]
